Earlier results, collected in patent publication US7985768B2, “Compounds as cannabinoid receptor ligands” (priority 2006, dated 2011).

Columns and labels:
animal models of pain = settings: models of acute thermal, persistent, inflammatory and neuropathic pain
[1] = at fully efficacious doses
rodent models of pain = settings: neuropathic, incisional, chronic and acute inflammatory pain
rat = rat formalin model of persistent pain
microglial activation = settings: in vitro
[2] = system: CB1 receptor knockout mice
[3] = system: CB2 receptor knockout mice
[4] = system: apolipoprotein E knockout mice
mice = settings: model for post-menopausal osteoporosis

What does the source list for `CN1CCCCC1Cn1cc(C(=O)c2cc([N+](=O)[O-])ccc2I)c2ccccc21` (stereo not shown) [AM-1241]?
analgesic efficacy (animal models of pain): robust analgesic efficacy; CB1 receptor-mediated CNS side effects [1]: devoid of typical CB1 receptor-mediated CNS side effects

Which results are given for `COc1ccc2c(c1)c(CCN1CCOCC1)c(C)n2C(=O)c1cccc(Cl)c1Cl` [GW405833]?
efficacy in pain models (rodent models of pain): efficacious; CB1 receptor-mediated CNS side effects [1]: devoid of typical CB1 receptor-mediated CNS side effects

For `CCCCCCC(C)(C)c1cc(OC)c([C@@H]2C=C(CO)[C@@H]3C[C@H]2C3(C)C)c(OC)c1` [HU-308], which antinociceptive response (rat) is on record?
The antinociceptive response was “elicits an antinociceptive response”.

With `CCCC(C)(C)c1ccc2c(c1)OC(C)(C)[C@@H]1CC=C(C)C[C@@H]21` [JWH-133] as the compound, how does the “effect on β-amyloid-induced microglial activation and neurotoxicity” value (microglial activation) read?
The value was “abrogated”.

With (−)-Δ^9-Tetrahydrocannabinol [Δ^9-THC] as the compound, how does the analgesic efficacy [2] read?
The analgesic efficacy was “retains some analgesic efficacy”.

And the immunosuppressive effects [3]?
Its immunosuppressive effects is “absent”.

And the “effect on progression of atherosclerotic lesions” value ([4]; low doses)?
Its value is “slowed the progression of atherosclerotic lesions”.

Which results are given for SR144528?
effect on the actions of JWH-133 (microglial activation; antagonist against JWH-133): blocked; effect on osteoclast activity (osteoclast): inhibit osteoclast activity; effect on ovariectomy-induced bone loss (mice): reverse ovariectomy-induced bone loss; effect on the actions of THC on atherosclerotic lesions ([4]; antagonist against THC): inhibited
